Our source for the SIRT3 activation, SIRT1 activation and Kd values is publication PMC10388363, “Novel 1,4-Dihydropyridines as Specific Binders and Activators of SIRT3 Impair Cell Viability and Clonogenicity and Downregulate Hypoxia-Induced Targets in Cancer Cells” (Journal of Medicinal Chemistry, 2023).

In assay [1] the target is T1, human SIRT3 (Homo sapiens, UniProt Q9NTG7).
T1 construct: pET151D/Topo (Sirt3-114-380 and Sirt5-34-302); His tag (N, cleaved yes); made in house; host or cells: Escherichia coli
T1 sequence (Q9NTG7 114-380): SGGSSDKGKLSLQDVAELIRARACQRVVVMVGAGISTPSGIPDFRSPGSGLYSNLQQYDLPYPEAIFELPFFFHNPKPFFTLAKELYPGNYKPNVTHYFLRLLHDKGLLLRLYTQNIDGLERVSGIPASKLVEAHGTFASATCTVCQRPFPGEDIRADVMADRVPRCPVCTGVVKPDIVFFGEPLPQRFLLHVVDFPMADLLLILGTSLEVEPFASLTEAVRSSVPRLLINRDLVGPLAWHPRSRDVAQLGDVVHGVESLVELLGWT
Further details: method as in PMID 36228194. Particulars: 100 μM; cited from earlier work.

The target of the next assay is T2, human SIRT1 (Homo sapiens, UniProt Q96EB6).
T2 construct: using constructs in pET15b (Sirt1); His tag (N, cleaved yes); made in house; host or cells: Escherichia coli
T2 sequence (Q96EB6 1-747): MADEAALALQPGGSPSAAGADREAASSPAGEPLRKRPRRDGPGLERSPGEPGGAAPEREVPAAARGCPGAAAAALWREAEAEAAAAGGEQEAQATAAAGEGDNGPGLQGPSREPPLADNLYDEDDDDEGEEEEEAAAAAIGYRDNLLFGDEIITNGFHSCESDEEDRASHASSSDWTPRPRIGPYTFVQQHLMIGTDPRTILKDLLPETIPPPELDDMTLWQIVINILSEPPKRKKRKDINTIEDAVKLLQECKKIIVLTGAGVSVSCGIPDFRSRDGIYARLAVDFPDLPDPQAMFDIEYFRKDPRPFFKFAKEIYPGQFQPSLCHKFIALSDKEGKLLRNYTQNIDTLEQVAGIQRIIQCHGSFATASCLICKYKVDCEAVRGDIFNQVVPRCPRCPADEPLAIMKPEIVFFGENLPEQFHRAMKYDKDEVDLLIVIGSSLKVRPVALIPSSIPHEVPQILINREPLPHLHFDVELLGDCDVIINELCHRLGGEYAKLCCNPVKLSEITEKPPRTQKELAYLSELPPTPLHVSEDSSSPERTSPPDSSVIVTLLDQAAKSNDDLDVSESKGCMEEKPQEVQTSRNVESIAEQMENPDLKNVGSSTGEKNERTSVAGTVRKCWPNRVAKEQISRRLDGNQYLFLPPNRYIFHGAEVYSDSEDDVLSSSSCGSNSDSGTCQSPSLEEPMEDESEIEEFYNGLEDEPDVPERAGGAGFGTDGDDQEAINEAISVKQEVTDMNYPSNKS
The arrangement: method as in PMID 36228194. Particulars: 100 μM; cited from earlier work.

Assay [2] deals with T1, human SIRT3. Put plainly: Surface plasmon resonance binding assay, immobilized SIRT3. The following applies: SPR, Scatchard analysis, analytes 5-80 μM. Here is the method: Next, surface plasmon resonance (SPR) experiments were conducted with selected SIRT3 activators 2e and 3a–d to ascertain their biophysical interaction with the human SIRT3 protein. Their parental compounds 2 and 3, together with honokiol, were used as positive controls. The experiments were carried out twice at different concentrations (5, 10, 20, 40, and 80 μM), by injecting the compounds at increasing doses (Figure 5). The resonance units (RU) increase with respect to baseline indicates the formation of the SIRT3/ligand complex, the plateau region represents the steady-state phase of the interaction (RUeq, RU at equilibrium) and the decrease in RU after 180 s represents dissociation of analytes from the immobilized SIRT3 protein after injection of the buffer.
SPR experiments were carried out using a SensiQ Pioneer system (SensiQ, Oklahoma City, OK, USA), essentially as in Genovese et al. 2020[84] and in Battista et al. 2021,[85] with some modifications, as follows.
The sensor chip (COOH5) was chemically activated by a 35 μL injection of a 1:1 mixture of […] (200 mM) and N-hydroxysuccinimide (50 mM) at a flow rate of 5 μL/min. Sirtuin3 (ligand) was immobilized on activated sensor chips via amine coupling. Immobilization was carried out in 20 mM sodium acetate at pH 4.0; unreacted groups were blocked by injecting 1 M ethanolamine hydrochloride (35 μL). Sirtuin3 immobilization level obtained was 1500–4000 RU.
The analytes, dissolved in 100% DMSO at 10 mM concentration, were diluted in buffer 20 mM Hepes, 150 mM NaCl, 0.005% surfactant P20 buffer (HBSP) to a concentration of 200 μM (2% final DMSO concentration), further diluted in HBSP + 2% DMSO (HBSP2%D) and injected on the sensor chip at a constant flow rate (nominal flow rate = 30 μL/min) at the following concentrations: 5, 10, 20, 40, and 80 μM.
The RU increase relative to baseline indicates complex formation (taking place at known analytes concentrations at each moment in the gradient); the plateau region represents the steady-state phase of the interaction (RUeq); and the decrease in RU after 180 s represents dissociation of analytes from the immobilized Sirtiun3 after injection of HBSP2%D. Regeneration procedures are based on two long (2000 and 500 s) injections of buffer, separated by a brief (5 s) injection of 10 mM NaOH.
Control experiments were performed in sensor chips treated as described above in the absence of an immobilized ligand. Kinetic evaluation of the sensorgrams was obtained using the SensiQ Qdat program and full fitting with 1, 2, and 3 sites; Scatchard analysis was used to determine apparent KD values.
On the technique in general: In SPR one partner is held on a chip, and binding of the other changes the refractive index at the surface.

The term Kd denotes the equilibrium constant for the complex coming apart. Turning to `CCOC(=O)C1=CN(C(=O)c2ccccc2)C=C(C(=O)OCC)C1c1ccccc1` [Compound 2], on human SIRT3 [1], the SIRT3 activation result is on record as “over 300%”. The SIRT1 activation entry at human SIRT1 was “below 200%”. For the same compound, at human SIRT3 [2], the Kd lay in the range of 40 to 47 µM.
